Reference: ChEMBL document CHEMBL2029253, “Pharmacophore modeling, virtual screening and 3D-QSAR studies of 5-tetrahydroquinolinylidine aminoguanidine derivatives as sodium hydrogen exchanger inhibitors” (Bioorg Med Chem Lett, 2012)
pIC50, pKi: −log10 of the molar value.

Experiment: Inhibition of sodium hydrogen exchanger-mediated platelet swelling in human
Settings: for pIC50 / IC50: Homo sapiens; for pIC50: read-out: IC50; for IC50: read-out: pIC50 (converted)

SMILES	pIC50	IC50 [nM]	pKi
COc1ccccc1C1C/C(=N\N=C(N)N)c2c(C)ccnc2C1 (configuration not stated)	7.00	100	–
COc1ccc(F)cc1C1C/C(=N\N=C(N)N)c2c(C)ccnc2C1 (configuration not stated)	–	32	–
Cc1ccnc2c1/C(=N/N=C(N)N)CC(c1cccc(Cl)c1Cl)C2 (configuration not stated)	–	88.9	–
Cc1ccnc2c1/C(=N/N=C(N)N)CC(c1ccccc1)C2 (configuration not stated)	> 7.30	91	–
N=C(N)N/N=C1\CC(c2ccccc2)Cc2ncccc21 (configuration not stated)	6.39	410	–
Cc1csc2c1/C(=N/N=C(N)N)CC(c1ccccc1Cl)C2 (configuration not stated)	–	220	–
Cc1ccccc1C1C/C(=N\N=C(N)N)c2c(C)c[nH]c2C1 (configuration not stated)	–	34	–
N=C(N)N/N=C1\CC(c2ccccc2)Cc2[nH]ccc21 (configuration not stated)	–	3500	–
Cc1ccnc2c1/C(=N/N=C(N)N)CC(c1ccccc1F)C2 (configuration not stated)	7.49	32	–
Cc1ccnc2c1/C(=N/N=C(N)N)CC(c1cc(Cl)sc1Cl)C2 (configuration not stated)	–	19	–
Cc1ccnc2c1/C(=N/N=C(N)N)CC(c1cccs1)C2 (configuration not stated)	–	47	–
Cc1ccnc2c1/C(=N/N=C(N)N)CC(c1ccc(Cl)cc1Cl)C2 (configuration not stated)	–	340	–
N=C(N)N/N=c1\cc(-c2ccccc2)oc2ccccc12	5.19	6400	–
Cc1cccc2c1/C(=N/N=C(N)N)CC(c1ccccc1Cl)O2 (configuration not stated)	–	200	–
Cc1ccc2c(n1)CC(c1ccccc1)C/C2=N\N=C(N)N (configuration not stated)	5.55	2800	–
Cc1ccnc2c1/C(=N/N=C(N)N)CC(c1ccc(Cl)cc1)C2 (configuration not stated)	> 7.30	550	–
Cc1ncnc2c1/C(=N/N=C(N)N)CC(c1ccccc1Cl)C2 (configuration not stated)	–	240	–
Cc1ccnc2c1/C(=N/N=C(N)N)CC(c1ccccc1Br)C2 (configuration not stated)	7.25	56	–
COc1ccnc2c1/C(=N/N=C(N)N)CC(c1ccccc1Cl)C2 (configuration not stated)	> 7.30	50	–
Cc1cnnc2c1/C(=N/N=C(N)N)CC(c1ccccc1Cl)C2 (configuration not stated)	–	26	–
Cc1ccnc2c1/C(=N/N=C(N)N)CC(c1cc(F)ccc1F)C2 (configuration not stated)	–	39	–
Cc1ccnc2oc(-c3ccccc3Cl)c/c(=N\NC(=N)N)c12	–	360	–
Cc1ccnc2c1/C(=N/N=C(N)N)CC(c1cc(F)ccc1Cl)C2 (configuration not stated)	–	19	7.72

Continued, in another order:

pIC50	IC50 [nM]	SMILES	pKi
> 7.30	61	Cc1ccnc2c1/C(=N/N=C(N)N)CC(c1cccc(Cl)c1)C2 (configuration not stated)	–
–	30	Cc1ccnc2c1/C(=N/N=C(N)N)CC(c1ccsc1)C2 (configuration not stated)	–
–	37	Cc1ccc(F)cc1C1C/C(=N\N=C(N)N)c2c(C)ccnc2C1 (configuration not stated)	–
–	110	Cc1ccnc2c1/C(=N/N=C(N)N)CC(c1ccco1)C2 (configuration not stated)	–
> 7.30	180	Cc1cc(C)c2c(n1)CC(c1ccccc1)C/C2=N\N=C(N)N (configuration not stated)	–
–	55	Cc1[nH]nc2c1/C(=N/N=C(N)N)CC(c1ccccc1Cl)C2 (configuration not stated)	–
–	82	Cc1coc2c1/C(=N/N=C(N)N)CC(c1ccccc1Cl)C2 (configuration not stated)	–
> 7.30	40	Cc1ccnc2c1/C(=N/N=C(N)N)CC(c1ccccc1Cl)C2 (configuration not stated)	–
–	22	Cc1ccnc2c1/C(=N/N=C(N)N)CC(c1ccsc1Cl)C2 (configuration not stated)	–
–	57.9	Cc1ccnc2c1/C(=N/N=C(N)N)CC(c1cc(Cl)ccc1Cl)C2 (configuration not stated)	–
7.24	57	Cc1ccccc1C1C/C(=N\N=C(N)N)c2c(C)ccnc2C1 (configuration not stated)	–
–	49	Cc1ccnc2c1/C(=N/N=C(N)N)CC(c1sc(Cl)cc1Cl)C2 (configuration not stated)	–
≥ 5.19	3300	N=C(N)N/N=C1\CC(c2ccccc2)Oc2ccccc21 (configuration not stated)	–
–	19	Cc1ccnc2c1/C(=N/N=C(N)N)CC(c1sccc1Cl)C2 (configuration not stated)	–
